Laboratory results published in patent US12060349B2, “Glucosylceramide synthase inhibitors” (Genzyme Corporation, priority 2012, dated 2024).
Like-named read-outs stand apart in the source and are kept apart here.

Assays:
B16 mouse melanoma cells = assay: cell viability in the B16 cell-based assay (Viability, B16 IC50)
Procedure, shortened: (§1)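 Two melanoma lines, mouse B16 and human C32, were treated and surface GM3 quantified by antibody immunofluorescence for IC50. A parallel viability readout gives the concentration killing 50% of cells, with values over 10 indicating no cell death.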

[1] = test system: GM3 expression on the cell surface, C32 human melanoma cells; assay: cell based phenotypic assay, cell surface GM3 by antibody mediated immunofluorescence, C32 (GM3 C32 IC50); conditions: 50% inhibition of GM3 expression on the cell surface
Procedure, shortened: (§2)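 B16 mouse and C32 human melanoma cells; cell-surface GM3 measured by antibody-mediated immunofluorescence, giving IC50.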

[2] = test system: GM3 expression on the cell surface, B16 mouse melanoma cells; assay: cell based phenotypic assay, cell surface GM3 by antibody mediated immunofluorescence, B16 (GM3 B16 IC50); conditions: 50% inhibition of GM3 expression on the cell surface
Procedure, shortened: as §2

[3] = molecular target: T1, glucosylceramide synthase (Homo sapiens, UniProt Q16739); assay: microsomal assay measuring conversion of ceramide to glucosylceramide by HPLC (GCS IC50); format: biochemical; conditions: concentration causing 50% inhibition of glucosylceramide synthase activity
T1 construct: Microsomes were isolated from A375 human melanoma cells; endogenous in cells; host or cells: A375 human melanoma cells (microsomal fraction, 100,000 g pellet)
T1 sequence (Q16739 1-394): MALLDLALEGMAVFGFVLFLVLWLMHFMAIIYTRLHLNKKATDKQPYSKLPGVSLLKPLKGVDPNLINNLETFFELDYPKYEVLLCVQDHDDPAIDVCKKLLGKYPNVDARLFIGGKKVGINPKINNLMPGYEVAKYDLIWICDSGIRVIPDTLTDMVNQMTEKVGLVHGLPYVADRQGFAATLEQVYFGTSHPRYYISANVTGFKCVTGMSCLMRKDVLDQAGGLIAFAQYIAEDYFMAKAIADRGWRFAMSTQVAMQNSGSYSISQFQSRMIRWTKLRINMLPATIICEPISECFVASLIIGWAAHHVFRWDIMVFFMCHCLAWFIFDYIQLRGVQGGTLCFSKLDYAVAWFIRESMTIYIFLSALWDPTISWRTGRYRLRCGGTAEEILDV
Procedure, shortened: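 Microsomal preparation assayed for glucosylceramide synthase by direct HPLC measurement of ceramide conversion to glucosylceramide. GCS IC50 is the compound concentration giving 50% inhibition of enzyme activity.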

C32 human melanoma cells = assay: cell viability in the C32 cell-based assay (Viability, C32 IC50); conditions: concentration causing 50% cell death, values greater than 10 represent a lack of cell death
Procedure, shortened: as §1

[4] = Mus musculus, B16, B16 cells, concentration causing 50% cell death, values greater than 10 represent a lack of cell death, read-out: Viability, B16 IC50
[5] = Homo sapiens, C32 human melanoma cells, read-out: GM3 C32 IC50
[6] = Mus musculus, B16 mouse melanoma cells, read-out: GM3 B16 IC50
[7] = Homo sapiens, C32, C32 cells, read-out: Viability, C32 IC50
[8] = Mus musculus, B16, read-out: Viability, B16 IC50
[9] = Homo sapiens, read-out: GM3 C32 IC50, C32 human melanoma cells
[10] = Mus musculus, read-out: GM3 B16 IC50, B16 mouse melanoma cells
[11] = Homo sapiens, C32, read-out: Viability, C32 IC50, C32 cells

Work on CCC1(NC(=O)NC2(c3ccc(-c4ccc(OCCOC)cc4)cc3)CC2)CN2CCC1CC2 (centres unmarked) [Example 164, 1-(3-Ethylquinuclidin-3-yl)-3-(1-(4′-(2-methoxyethoxy)-[1,1′-biphenyl]-4-yl)cyclopropyl)urea] yielded an IC50 (B16 mouse melanoma cells; [4]) of 1000 nM, an IC50 [1, 5] of 0.205 nM and an IC50 [2, 6] of 2.51 nM. For the same compound, the IC50 [3] was 6.16 nM and the IC50 (C32 human melanoma cells; [7]) was 173 nM.
In the case of CC(C)(NC(=O)OC1CN2CCC1CC2)c1ccc(-c2ccc(C(=O)N3CCOCC3)cc2)cc1 (centres unmarked) [Example 265, Quinuclidin-3-yl 2-(4′-(morpholine-4-carbonyl)biphenyl-4-yl)propan-2-ylcarbamate], the IC50 (B16 mouse melanoma cells; [8]) is reported as ≥ 10000 nM, the IC50 [1, 9] is reported as 39.9 nM and the IC50 [2, 10] is reported as 454 nM. For the same compound, the IC50 [3] was 480 nM and the IC50 (C32 human melanoma cells; [11]) was 2150 nM.
In the case of COCCOc1ccc(-c2cccc(C(C)(C)NC(=O)OC3CCN4CCC3CC4)c2)cc1 (centres unmarked) [Example 171, 1-Azabicyclo[3.2.2]nonan-4-yl (2-(4′-(2-methoxyethoxy)-[1,1′-biphenyl]-3-yl)propan-2-yl)carbamate], the IC50 (B16 mouse melanoma cells; [4]) is reported as 74.6 nM, the IC50 [1, 5] is reported as 1.45 nM and the IC50 [2, 6] is reported as 11.9 nM. The IC50 [3] was 32.5 nM and the IC50 (C32 human melanoma cells; [7]) was 3980 nM.
For COCCOc1ccc(-c2nc(C(C)(C)NC(=O)OC3CCN4CCC3CC4)cs2)cc1 (centres unmarked) [Example 344, 1-Azabicyclo[3.2.2]nonan-4-yl (2-(2-(4-(2-methoxyethoxy)phenyl)thiazol-4-yl)propan-2-yl)carbamate], the IC50 (B16 mouse melanoma cells; [4]) was ≥ 10000 nM, the IC50 [1, 5] was 8.76 nM and the IC50 [2, 6] was 56.4 nM. For the same compound, the IC50 [3] was 65.8 nM and the IC50 (C32 human melanoma cells; [7]) was 1000 nM.
For CCC1(NC(=O)NC(C)(C)c2ccc(-c3ccc(OCCn4ccnn4)cc3)cc2)CN2CCC1CC2 (centres unmarked) [Example 184, 1-(2-(4′-(2-(1H-1,2,3-Triazol-1-yl)ethoxy)-[1,1′-biphenyl]-4-yl)propan-2-yl)-3-(3-ethylquinuclidin-3-yl)urea], the IC50 (B16 mouse melanoma cells; [4]) was 3160 nM, the IC50 [1, 5] was 3.46 nM and the IC50 [2, 6] was 188 nM. For the same compound, the IC50 [3] was 21.1 nM and the IC50 (C32 human melanoma cells; [7]) was 1000 nM.
Compound COCc1ccc(-c2ccnc(N3CCC(C(=O)NC4(C)CN5CCC4CC5)CC3)n2)cc1 (centres unmarked) [Example 73, 1-(4-(4-(Methoxymethyl)phenyl)pyrimidin-2-yl)-N-(3-methylquinuclidin-3-yl)piperidine-4-carboxamide] has an IC50 (B16 mouse melanoma cells; [4]) of 4640 nM, an IC50 [1, 5] of 0.25 nM and an IC50 [2, 6] of 47.4 nM. The IC50 [3] was 3.46 nM and the IC50 (C32 human melanoma cells; [7]) was 631 nM.
In the case of COCc1ccc(-c2nc(N3CCC(C(=O)NC4(C)CN5CCC4CC5)CC3)ncc2F)cc1 (centres unmarked) [Example 61, 1-(5-Fluoro-4-(4-(methoxymethyl)phenyl)pyrimidin-2-yl)-N-(3-methylquinuclidin-3-yl)piperidine-4-carboxamide], the IC50 (B16 mouse melanoma cells; [4]) is reported as 8540 nM, the IC50 [1, 5] is reported as 0.13 nM and the IC50 [2, 6] is reported as 52.4 nM. For the same compound, the IC50 [3] was 1.41 nM and the IC50 (C32 human melanoma cells; [7]) was 46.4 nM.
Work on CC1(NC(=O)C2CCN(c3cncc(-c4ccc(F)cc4)n3)CC2)CCN2CCC1CC2 (centres unmarked) [Example 46, 1-(6-(4-Fluorophenyl)pyrazin-2-yl)-N-(4-methyl-1-azabicyclo[3.2.2]nonan-4-yl)piperidine-4-carboxamide] yielded an IC50 (B16 mouse melanoma cells; [4]) of 7310 nM, an IC50 [1, 5] of 0.425 nM and an IC50 [2, 6] of 76.6 nM. The IC50 [3] was 2.79 nM and the IC50 (C32 human melanoma cells; [7]) was 316 nM.
With COCCOc1ccc(-c2nc(N3CCC(F)(C(=O)NC4(C)CCN5CCC4CC5)CC3)ncc2F)cc1 (centres unmarked) [Example 91, 4-Fluoro-1-(5-fluoro-4-(4-(2-methoxyethoxy)phenyl)pyrimidin-2-yl)-N-(4-methyl-1-azabicyclo[3.2.2]nonan-4-yl)piperidine-4-carboxamide] the IC50 (B16 mouse melanoma cells; [4]) was 2660 nM, the IC50 [1, 5] was 0.117 nM and the IC50 [2, 6] was 71.4 nM. For the same compound, the IC50 [3] was 2.04 nM and the IC50 (C32 human melanoma cells; [7]) was 100 nM.
CC1CN(C(=O)OC2CCN3CCC2CC3)CCN1c1nccc(-c2ccccc2)n1 (centres unmarked) [Example 154, 1-Azabicyclo[3.2.2]nonan-4-yl 3-methyl-4-(4-phenylpyrimidin-2-yl)piperazine-1-carboxylate] showed an IC50 (B16 mouse melanoma cells; [4]) of 2840 nM, an IC50 [1, 5] of 16.5 nM and an IC50 [2, 6] of 1930 nM. The IC50 [3] was 57 nM and the IC50 (C32 human melanoma cells; [7]) was 1000 nM.
In the case of CC1(NC(=O)N2CCN(c3cccc(-c4ncccn4)c3)CC2)CCN2CCC1CC2 (centres unmarked) [Example 26, N-(4-Methyl-1-azabicyclo[3.2.2]nonan-4-yl)-4-(3-(pyrimidin-2-yl)phenyl)piperazine-1-carboxamide], the IC50 (B16 mouse melanoma cells; [4]) is reported as ≥ 10000 nM, the IC50 [1, 5] is reported as 360 nM and the IC50 [2, 6] is reported as > 10000 nM. The IC50 [3] was 6900 nM and the IC50 (C32 human melanoma cells; [7]) was ≥ 10000 nM.
Work on CC(C)(NC(=O)OC1CN2CCC1CC2)c1ccc(-c2ccc(N3CCOCC3)cc2)cc1 (centres unmarked) [Example 231, Quinuclidin-3-yl (2-(4′-morpholino-[1,1′-biphenyl]-4-yl)propan-2-yl)carbamate] yielded an IC50 (B16 mouse melanoma cells; [8]) of 2000 nM, an IC50 [1, 9] of 15 nM and an IC50 [2, 10] of 230 nM. For the same compound, the IC50 [3] was 71 nM and the IC50 (C32 human melanoma cells; [11]) was 2000 nM.
Compound CC1(NC(=O)C2CCN(c3nccc(-c4ccc(F)cc4)n3)CC2)CN2CCC1CC2 (centres unmarked) [Example 44, 1-(4-(4-Fluorophenyl)pyrimidin-2-yl)-N-(3-methylquinuclidin-3-yl)piperidine-4-carboxamide] has an IC50 (B16 mouse melanoma cells; [4]) of 9270 nM, an IC50 [1, 5] of 0.205 nM and an IC50 [2, 6] of 49.9 nM. It also gave an IC50 [3] of 1.24 nM and an IC50 (C32 human melanoma cells; [7]) of 316 nM.
With O=C(OC1CCN2CCC1CC2)C1CCN(c2nccc(-c3ccc(F)cc3)n2)CC1 (centres unmarked) [Example 110, 1-Azabicyclo[3.2.2]nonan-4-yl 1-(4-(4-fluorophenyl)pyrimidin-2-yl)piperidine-4-carboxylate] the IC50 (B16 mouse melanoma cells; [4]) was 3810 nM, the IC50 [1, 5] was 2.39 nM and the IC50 [2, 6] was 528 nM. It also gave an IC50 [3] of 1.22 nM and an IC50 (C32 human melanoma cells; [7]) of 1000 nM.
With CC1(NC(=O)C2(F)CCN(c3cnc(Oc4ccc(F)cc4)cn3)CC2)CN2CCC1CC2 (centres unmarked) [Example 133, 4-Fluoro-1-(5-(4-fluorophenoxy)pyrazin-2-yl)-N-(3-methylquinuclidin-3-yl)piperidine-4-carboxamide] the IC50 (B16 mouse melanoma cells; [4]) was ≥ 10000 nM, the IC50 [1, 5] was 4.83 nM and the IC50 [2, 6] was 467 nM. It also gave an IC50 [3] of 45.9 nM and an IC50 (C32 human melanoma cells; [7]) of 1000 nM.
In the case of “1-(4-(4-Fluorophenoxy)pyrimidin-2-yl)-N-(3-methylquinuclidin-3-yl)piperidine-4-carboxamide [Example 121]”, the IC50 (B16 mouse melanoma cells; B16 cells, concentration causing 50% cell death, values greater than 10 represent a lack of cell death, read-out: Viability, B16 IC50) is reported as 7650 nM, the IC50 ([1]; C32 human melanoma cells, read-out: GM3 C32 IC50) is reported as 0.093 nM and the IC50 ([2]; B16 mouse melanoma cells, read-out: GM3 B16 IC50) is reported as 26.3 nM. For the same compound, the IC50 [3] was 1.33 nM and the IC50 (C32 human melanoma cells; C32 cells, read-out: Viability, C32 IC50) was 100 nM.
For CC(C)(NC(=O)OC1CCN2CCC1CC2)c1ccc(-c2ccc(OCCC3COC3)cc2)cc1 (centres unmarked) [Example 195, 1-Azabicyclo[3.2.2]nonan-4-yl (2-(4′-(2-(oxetan-3-yl)ethoxy)-[1,1′-biphenyl]-4-yl)propan-2-yl)carbamate], the IC50 (B16 mouse melanoma cells; [4]) was 8030 nM, the IC50 [1, 5] was 1.01 nM and the IC50 [2, 6] was 94.8 nM. It also gave an IC50 [3] of 5.67 nM and an IC50 (C32 human melanoma cells; [7]) of 100 nM.
With COCC1CN(C(=O)NC2(C)CCN3CCC2CC3)CCN1c1nccc(-c2ccccc2)n1 (centres unmarked) [Example 144, 3-(Methoxymethyl)-N-(4-methyl-1-azabicyclo[3.2.2]nonan-4-yl)-4-(4-phenylpyrimidin-2-yl)piperazine-1-carboxamide] the IC50 (B16 mouse melanoma cells; [4]) was ≥ 10000 nM, the IC50 [1, 5] was 6.33 nM and the IC50 [2, 6] was 529 nM. It also gave an IC50 [3] of 67.3 nM and an IC50 (C32 human melanoma cells; [7]) of 1000 nM.
Work on CC(C)(NC(=O)NC1(C)CCN2CCC1CC2)c1ccc(-c2ccc(N3CCOCC3)cc2)cc1 (centres unmarked) [Example 233, 1-(4-Methyl-1-azabicyclo[3.2.2]nonan-4-yl)-3-(2-(4′-morpholino-[1,1′-biphenyl]-4-yl)propan-2-yl)urea] yielded an IC50 (B16 mouse melanoma cells; [4]) of 1000 nM, an IC50 [1, 5] of 0.726 nM and an IC50 [2, 6] of 5.51 nM. It also gave an IC50 [3] of 5.68 nM and an IC50 (C32 human melanoma cells; [7]) of 1000 nM.
